According to patent US12583873B2, “Amino acid mineral complex having immunopotentiating activity and composition for foods, pharmaceuticals, or feeds comprising same” (priority 2018, dated 2026):
Values joined by “and” are separate entries in the source; they are usually repeats but may differ in a detail not shown here. Equal values may be shown once. “Also recorded” adds a separate entry of the source. Read-outs that look alike come from different tables or passages of the source.

Columns and labels:
[1] = system: immunoglobulin (IgG) in serum; conditions: pig, in vivo
H1N1 virus [2] = assay: H1N1 virus content in lung tissue of mice; format: in vivo; conditions: oral 20 μg/kg/day for 5 days; for Tissues virus titers: lung tissue of H1N1-infected ICR mice
[3] = pig, in vivo
H1N1 virus [4] = assay: Body weight change of H1N1-infected mice; format: in vivo; conditions: H1N1-infected ICR mice; for Body weight, Start point (day 0): baseline before oral 20 μg/kg/day; for Body weight as compared to the negative control group / Body weight, End point (day 5): oral 20 μg/kg/day for 5 days; for Body weight, End point (day 5): start point 100.0
[5] = pig, in vivo; remark: listed apart in the source
[6] = system: Foot-and-mouth disease antibody (FMDV type 0); conditions: pig, in vivo

N[C@@H](CC(=O)[O-])C(=O)[O-].O.[Zn+2] [Example 1-2, zinc aspartate hydrate]
IgG ([1]; hydrate): 504ab mg/dL and 546a mg/dL | Immunoglobulin content in blood as compared to CON 1 and CON 2 ([1]; hydrate): significant increase; also recorded: distinct, although not significant, increase | Virus content in the lung tissue (H1N1 virus [2]; H1N1-infected ICR mice): decreased significantly | Tissues virus titers (H1N1 virus [2]): 2.1a Log10 TCID50 | Body weight as compared to CON 1 and CON 2 [3]: slight increase in body weight | Body weight, Start time [3]: 22.56 ^ | Body weight, Start point (day 0) (H1N1 virus [4]): 100.0 | Body weight as compared to the negative control group (H1N1 virus [4]): did not show significant increase in body weight | Body weight, End point (day 5) (H1N1 virus [4]): 106.8b | Zinc content in blood as compared to CON 1 and CON 2 [5]: increased significantly | Positive rate for the foot-and-mouth disease antibody [6]: 100% | Production of the foot-and-mouth disease antibody as compared to CON 1 and CON 2 ([6]; hydrate): increased slightly; also recorded: Significant increase

O=S(=O)([O-])[O-].[Zn+2] [CON 2, zinc sulfate]
IgG [1]: 466b mg/dL | Tissues virus titers (H1N1 virus [2]): 4.4b Log10 TCID50 | Body weight, End time [3]: 53.74b | Body weight, Start time [3]: 22.56 | Body weight, Start point (day 0) (H1N1 virus [4]): 100.0 | Body weight as compared to the negative control group (H1N1 virus [4]): decreased body weight | Body weight, End point (day 5) (H1N1 virus [4]): 99.9a | Zinc [5]: 98c μg/dL | Antibody titer (PI) [6]: 47.52b | Positive rate [6]: 50 | Positive rate for the foot-and-mouth disease antibody [6]: 50%

zinc-aspartic acid complex [Example 1-1]
IgG [1]: 480b mg/dL | Immunoglobulin content in blood as compared to CON 1 and CON 2 [1]: not significantly different | Tissues virus titers (H1N1 virus [2]): 4.1b Log10 TCID50 | Body weight as compared to CON 1 and CON 2 [3]: slight increase in body weight | Body weight, End time [3]: 54.43ab | Body weight, Start time [3]: 22.56 ^ | Body weight, Start point (day 0) (H1N1 virus [4]): 100.0 ^ | Body weight as compared to the negative control group (H1N1 virus [4]): did not show significant increase in body weight | Body weight, End point (day 5) (H1N1 virus [4]): 104.8ab | Antibody titer (PI) [6]: 51.88b | Positive rate [6]: 75 | Positive rate for the foot-and-mouth disease antibody [6]: 75% | Production of the foot-and-mouth disease antibody as compared to CON 1 and CON 2 [6]: increased slightly

zinc-aspartic acid complex [Comparative Example 3]
IgG [1]: 489b ^ mg/dL | Immunoglobulin content in blood as compared to CON 1 and CON 2 [1]: not significantly different | Tissues virus titers (H1N1 virus [2]): 3.9b Log10 TCID50 | Body weight as compared to CON 1 and CON 2 [3]: slight increase in body weight | Body weight, End time [3]: 54.55a | Body weight, Start time [3]: 22.56 ^ | Body weight, Start point (day 0) (H1N1 virus [4]): 100.0 ^ | Body weight as compared to the negative control group (H1N1 virus [4]): did not show significant increase in body weight | Body weight, End point (day 5) (H1N1 virus [4]): 103.7ab | Antibody titer (PI) [6]: 54.45b | Positive rate [6]: 75 | Positive rate for the foot-and-mouth disease antibody [6]: 75% | Production of the foot-and-mouth disease antibody as compared to CON 1 and CON 2 [6]: increased slightly

[O-2].[Zn+2] [CON 1, zinc oxide]
IgG [1]: 472b mg/dL | Body weight, End time [3]: 53.62b | Body weight, Start time [3]: 22.56 | Zinc [5]: 100c μg/dL | Antibody titer (PI) [6]: 47.38b | Positive rate [6]: 50 | Positive rate for the foot-and-mouth disease antibody [6]: 50%
